From ChEMBL document CHEMBL3585294, “LAT Transport Inhibitors from Pittosporum venulosum Identified by NMR Fingerprint Analysis” (J Nat Prod, 2015)

experiment: Inhibition of LAT in human LNCAP cells assessed as inhibition of [3H]-L-leucine transport by liquid scintillation counting analysis; assay type: cell-based

Structure (SMILES) | IC50 [µM]
NC1(C(=O)O)CC2CCC1C2 (stereo not given) | 4060
CC(=O)O[C@H]1[C@H](OC(C)(C)[C@H]2CC=C(C)CC2)O[C@H](C)[C@H](O)[C@@H]1OC(=O)C=C(C)C | 8.12
C/C=C(/C)C(=O)O[C@H]1[C@@H](O)[C@@H](C)O[C@@H](OC(C)(C)[C@H]2CC=C(C)CC2)[C@@H]1OC(C)=O | 29.2
CC[C@H](C)C(=O)O[C@H]1[C@@H](O)[C@@H](C)O[C@@H](OC(C)(C)[C@H]2CC=C(C)CC2)[C@@H]1OC(C)=O | 11.5
CC[C@H](C)C(=O)O[C@@H]1[C@H](O)[C@@H](OC(C)=O)[C@H](OC(C)(C)[C@H]2CC=C(C)CC2)O[C@@H]1C | 39.7
